According to patent US10676429B2, “Sulfamoyl-arylamides and the use thereof as medicaments for the treatment of hepatitis B” (priority 2012, dated 2020):

How the values were obtained:
[1] = tested on: HBV; assay: Anti-HBV activity in HepG2.117 cell line (Tet-off, intracellular HBV DNA, realtime PCR); format: cell-based; details: HepG2.117 cells, 3 days of treatment, intracellular HBV DNA, read-out: HepG2 117 EC50
[2] = tested on: HBV; assay: Anti-HBV activity in stable transfected HepG2.2.15 cell line (HBV DNA from secreted virions, realtime PCR); format: cell-based; details: Hepatitis B virus, HepG2.2.15, 144 h, HepG2.2.15 cells, 6 days of treatment, secreted virion HBV DNA; read-out: HepG2 2.15 EC50
[3] = Cytotoxicity in HepG2 cells, 4 days, Resazurin assay; details: human, HepG2 cells
[4] = Hepatitis B virus, HepG2.117, 72 h

| Structure (SMILES) | EC50 [1, 4] [nM] | EC50 [2] [nM] | CC50 at 4 days [3] [nM] | EC50 [1] [nM] |
| --- | --- | --- | --- | --- |
| Cc1cc(NC(=O)c2cccc(S(=O)(=O)N[C@H]3C[C@H](O)C3)c2)ccc1F [Compound 184a] | 770 | 310 | > 25000 | – |
| Cc1cc(NC(=O)c2cccc(S(=O)(=O)NC3Cc4ccccc4C3)c2)ccc1F [Compound 168] | 370 | 270 | 11800 | – |
| C=CC(C)NS(=O)(=O)c1cccc(C(=O)Nc2ccc(F)c(C)c2)c1 (stereo not drawn) [Compound 150] | 730 | 100 | > 25000 | – |
| COc1cc(NC(=O)c2cccc(S(=O)(=O)NC3(C)COC3)c2)ccc1F [Compound 109] | 2530 | 1230 | > 25000 | – |
| Cc1cc(NC(=O)c2cccc(S(=O)(=O)NC(C)Cc3ccncc3)c2)ccc1F (stereo not drawn) [Compound 224] | 760 | 160 | > 25000 | – |
| Cc1cc(NC(=O)c2cccc(S(=O)(=O)NC3CCCC3)c2)ccc1F [Compound 11] | 420 | 100 | 19600 | – |
| Cc1cc(NC(=O)c2cccc(S(=O)(=O)NCC(F)F)c2)ccc1F [Compound 227] | 710 | 160 | > 25000 | – |
| Cc1cc(NC(=O)c2cc(S(=O)(=O)NC3(C)COC3)ccc2C)ccc1F [Compound 122] | 180 | 130 | > 25000 | – |
| Cc1cc(NC(=O)c2cccc(S(=O)(=O)N[C@@H]3CCC[C@H]3O)c2)ccc1F [Compound 173] | 360 | 370 | > 25000 | – |
| Cc1cc(NC(=O)c2cccc(S(=O)(=O)NC3Cc4ccccc4C3O)c2)ccc1F (stereo not drawn) [Compound 141] | 600 | 360 | > 25000 | – |
| O=C(Nc1ccc(F)c(Cl)c1)c1c(F)ccc(S(=O)(=O)N[C@H]2CCOC2)c1F [Compound 201] | 60 | 60 | > 25000 | – |
| CC[C@@H](C)NS(=O)(=O)c1cccc(C(=O)Nc2ccc(F)cc2)c1 [Compound 70] | 890 | 340 | > 25000 | – |
| Cc1cc(NC(=O)c2cc(S(=O)(=O)N[C@H]3CCOC3)ccc2C)ccc1F [Compound 121] | 130 | 160 | > 25000 | – |
| O=C(Nc1ccccc1)c1cccc(S(=O)(=O)NC2CCCCC2)n1 [Compound 65] | > 25000 | 10800 | 35300 | – |
| Cc1cc(NC(=O)c2cccc(S(=O)(=O)NC3COCC3O)c2)ccc1F (stereo not drawn) [Compound 171] | 4390 | 790 | > 25000 | – |
| O=C(Nc1ccccc1)c1c[nH]c(S(=O)(=O)NC2CCCCC2)n1 [Compound 63] | 21100 | 9940 | > 100000 | – |
| O=C(Nc1ccc(F)c(F)c1)c1cccc(S(=O)(=O)NC2CCCC2)c1 [Compound 14] | 360 | 90 | 11700 | – |
| O=C(Nc1ccccc1)c1cc(S(=O)(=O)N2CCCCC2)cs1 [Compound 59] | 19300 | 12800 | 46700 | – |
| Cc1cc(NC(=O)c2cccc(S(=O)(=O)N3CC4(COC4)C3)c2)ccc1F [Compound 135] | 360 | 560 | > 25000 | – |
| COC(=O)N1CC(NS(=O)(=O)c2cccc(C(=O)Nc3ccc(F)c(C)c3)c2)C1 [Compound 185] | 620 | 220 | > 25000 | – |
| O=C(Nc1ccccc1)c1cc(S(=O)(=O)NC2CCCCC2)cs1 [Compound 60] | 670 | 850 | 29100 | – |
| Cc1cc(NC(=O)c2cccc(S(=O)(=O)N[C@@H](C)C3CC3)c2)ccc1F [Compound 174] | 2840 | 470 | > 25000 | – |

| Structure (SMILES) | EC50 [1, 4] [nM] | EC50 [2] [nM] | CC50 at 4 days [3] [nM] | EC50 [1] [nM] |
| --- | --- | --- | --- | --- |
| CC1(NS(=O)(=O)c2cccc(C(=O)Nc3ccc(F)c(O)c3)c2)COC1 [Compound 108] | 9270 | 7200 | > 25000 | – |
| Cc1c(Br)cc(S(=O)(=O)N[C@H]2CCOC2)c(F)c1C(=O)Nc1ccc(F)c(F)c1 [Compound 187] | 950 | – | > 25000 | – |
| Cc1cc(NC(=O)c2cc(S(=O)(=O)NC3(C)COC3)ccc2Cl)ccc1F [Compound 232] | 310 | – | > 25000 | – |
| CC1(NS(=O)(=O)c2ccc(Cl)c(C(=O)Nc3ccc(F)c(C(F)(F)F)c3)c2F)COC1 [Compound 208] | > 1000 | – | > 25000 | – |
| Cc1cc(NC(=O)c2c(C)ccc(S(=O)(=O)NC3(C)COC3)c2F)ccc1F [Compound 204] | 90 | – | > 25000 | – |
| N#Cc1cc(NC(=O)c2c(F)ccc(S(=O)(=O)N[C@H]3CCOC3)c2F)ccc1F [Compound 199] | 430 | – | > 25000 | – |
| Cc1cc(NC(=O)c2c(C)ccc(S(=O)(=O)NC(C)(C)C)c2F)ccc1F [Compound 205] | 350 | – | > 25000 | – |
| Cc1cc(NC(=O)c2c(C)ccc(S(=O)(=O)N[C@H]3CCOC3)c2F)ccc1F [Compound 189] | 350 | – | > 25000 | – |
| Cc1cc(NC(=O)c2c(C)c(Br)cc(S(=O)(=O)NC3(C)COC3)c2F)ccc1F [Compound 190] | 270 | – | > 25000 | – |
| Cc1ccc(S(=O)(=O)NC2(C)COC2)c(F)c1C(=O)Nc1cc(F)c(F)c(Cl)c1 [Compound 192] | 190 | – | > 25000 | – |
| O=C(Nc1ccc(F)c(Br)c1)c1c(F)ccc(S(=O)(=O)N[C@H]2CCOC2)c1F [Compound 198] | 150 | – | > 25000 | – |
| CC1(NS(=O)(=O)c2cccc(C(=O)Nc3ccc(F)c(C(F)(F)F)c3)c2F)COC1 [Compound 219] | 460 | – | > 25000 | – |
| Cc1cc(NC(=O)c2c(Br)ccc(S(=O)(=O)NC3(C)COC3)c2F)ccc1F [Compound 213] | 280 | – | > 25000 | – |
| O=C(Nc1ccc(F)c(C(F)(F)F)c1)c1c(F)ccc(S(=O)(=O)N[C@H]2CCOC2)c1F [Compound 200] | 450 | – | > 25000 | – |
| CC1(NS(=O)(=O)c2ccc(F)c(C(=O)Nc3ccc(F)c(C(F)(F)F)c3)c2Br)COC1 [Compound 212] | 7300 | – | > 25000 | – |
| COC(=O)N1CCCC(NS(=O)(=O)c2cccc(C(=O)Nc3ccc(F)c(C)c3)c2)C1 (racemic) [Compound 159] | – | 150 | > 25000 | – |
| Cc1cc(NC(=O)c2cccc(S(=O)(=O)NC3CCCC(O)C3)c2)ccc1F (stereo not drawn) [Compound 134] | – | – | > 25000 | 570 |
| Cc1cc(NC(=O)c2cccc(S(=O)(=O)NC(C)(C)C)c2F)ccc1F [Compound 221] | 130 | – | > 25000 | – |
| Cc1ccc(S(=O)(=O)N[C@H]2CCOC2)c(F)c1C(=O)Nc1ccc(F)c(F)c1 [Compound 188] | 240 | – | > 25000 | – |
| Cc1cc(NC(=O)c2c(Cl)ccc(S(=O)(=O)NC3(C)COC3)c2F)cc(F)c1F [Compound 209] | 150 | – | > 25000 | – |
| Cc1cc(NC(=O)c2c(F)ccc(S(=O)(=O)N[C@H]3CCOC3)c2F)ccc1F [Compound 197] | 90 | – | > 25000 | – |
| CC1(NS(=O)(=O)c2ccc(Cl)c(C(=O)Nc3ccc(F)c(C#N)c3)c2F)COC1 [Compound 207] | > 1000 | – | > 25000 | – |
